Data: patent US12065430B2, “Indazole compound or salt thereof” (TAIHO PHARMACEUTICAL CO., LTD., priority 2018, dated 2024)

Biological target: G12C K-Ras4B (1-169) (Homo sapiens (Human), UniProt P01116, G12C)
Assay: Test of compounds on whether to bind to KRASG12C (LC-MS compound binding rate)
Conditions: final compound concentration of 2 μM, 1 μM protein, 25° C. for 2 hours
Experimental: Test compounds were prepared in the form of a 10 mM DMSO solution.
K-Ras4B (1-169) and G12C K-Ras4B (1-169) proteins were mixed and diluted with a buffer (1×TBS, 0.1 mM TCEP) to prepare individual 1 μM protein solutions. A 10 mM test compound was diluted tenfold with DMSO to make a 1 mM solution, and then diluted fivefold with DMSO to make a 200 μM solution. The 200 μM solution was further diluted fivefold to make a 40 μM solution. When the final compound concentration was 10 μM, 1 μL of a 200 μM test compound was added to 19 μL of a 1 μM protein solution. When the final compound concentration was 2 μM, 1 μL of a 40 μM test compound was added to 19 μL of a 1 μM protein solution. The mixtures were stored in an incubator at 25° C. for 2 hours, and 80 μL of a 1×TBS solution containing 0.2% formic acid was added thereto to end the reaction, followed by LC-MS measurement. LC-MS measurement was performed using Xevo G2-S Q-Tof manufactured by Waters, and reverse-phase chromatography was performed with a desalting column. A mass spectrum of positive ions was obtained by electrospray. For a mass spectrum, a spectrum of a polyvalent ion was collectively converted to a molecular weight by using OpenLynx software by the MaxEnt technique, and a compound binding rate was obtained from the ratio of a signal intensity that corresponds to the molecular weight of a protein to a signal intensity that corresponds to the molecular weight of a compound binding to the protein.
By obtaining the compound binding rate for K-Ras4B (1-169) and the compound binding rate for G12C K-Ras4B (1-169) at the same time, information of the selectivity for G12C K-Ras4B (1-169) was obtained at the same time.
The test compounds were measured at their final compound concentration of 2 μM. […] Almost no compounds of the present invention binded to K-Ras4B (1-169). The “binding rate” (%) for each of K-Ras4B (1-169) and G12C K-Ras4B (1-169) refers to the ratio of the signal intensity of binded forms to the sum of the signal intensity of non-binded forms and the signal intensity of binded forms.

Row | Compound | binding rate for G12C K-Ras4B (1-169)
1 | C=CC(=O)N1C[C@@H](NC(=O)c2c(C)nc(CNc3n[nH]c4cc(Cl)c(C(C)(C)C)cc34)n2C)[C@H]1C (relative stereo) [Example 52, N-((2R*,3R*)-1-acryloyl-2-methylazetidin-3-yl)-2-(((5-(tert-butyl)-6-chloro-1H-indazol-3-yl)amino)methyl)-1,4-dimethyl-1H-imidazole-5-carboxamide] | B (a binding rate of 60% or more and less than 80% is rated “B,”)
2 | C=CC(=O)N1C[C@@H](NC(=O)c2c(C)nc(CNc3n[nH]c4cc(Cl)c(C(C)(C)C)cc34)n2C)[C@@H]1C (relative stereo) [Example 59, N-(trans-1-acryloyl-2-methylazetidin-3-yl)-2-(((5-(tert-butyl)-6-chloro-1H-indazol-3-yl)amino)methyl)-1,4-dimethyl-1H-imidazole-5-carboxamide] | B (a binding rate of 60% or more and less than 80% is rated “B,”)
3 | C=CC(=O)N1CC(NC(=O)c2cnc(CNc3n[nH]c4cc(Cl)c(C(C)(C)C)cc34)n2C)C1 [Example 1, N-(1-acryloylazetidin-3-yl)-2-(((5-(tert-butyl)-6-chloro-1H-indazol-3-yl)amino)methyl)-1-methyl-1H-imidazole-5-carboxamide] | A (a binding rate of 80% or more is rated “A,”)
4 | C=CC(=O)N1CC(NC(=O)c2sc(CNc3n[nH]c4cc(Cl)c(C(C)(C)C)cc34)nc2C)C1 [Example 2, N-(1-acryloylazetidin-3-yl)-2-(((5-(tert-butyl)-6-chloro-1H-indazol-3-yl)amino)methyl)-4-methylthiazole-5-carboxamide] | B (a binding rate of 60% or more and less than 80% is rated “B,”)
5 | C=CC(=O)N1CC(NC(=O)c2cnc(C(C)Nc3n[nH]c4cc(Cl)c(C(C)(C)C)cc34)n2C)C1 (centres unmarked) [Example 4, N-(1-acryloylazetidin-3-yl)-2-(1-((5-(tert-butyl)-6-chloro-1H-indazol-3-yl)amino)ethyl)-1-methyl-1H-imidazole-5-carboxamide] | C (a binding rate of 40% or more and less than 60% is rated “C,”)
6 | [2H]C([2H])(Nc1n[nH]c2cc(Cl)c(C(C)(C)C)cc12)c1nc(C)c(C(=O)NC2CN(C(=O)C=C)C2)n1C [Example 5, N-(1-acryloylazetidin-3-yl)-2-(((5-(tert-butyl)-6-chloro-1H-indazol-3-yl)amino)methyl-d2)-1,4-dimethyl-1H-imidazole-5-carboxamide] | A (a binding rate of 80% or more is rated “A,”)
7 | C=CC(=O)N1CC(NC(=O)c2c(Cl)c(CNc3n[nH]c4cc(Cl)c(C(C)(C)C)cc34)nn2C)C1 [Example 6, N-(1-acryloylazetidin-3-yl)-3-(((5-(tert-butyl)-6-chloro-1H-indazol-3-yl)amino)methyl)-4-chloro-1-methyl-1H-pyrazole-5-carboxamide] | B (a binding rate of 60% or more and less than 80% is rated “B,”)
8 | C=CC(=O)N1CC(NC(=O)c2csc(CNc3n[nH]c4cc(Cl)c(C(C)(C)C)cc34)n2)C1 [Example 7, N-(1-acryloylazetidin-3-yl)-2-(((5-(tert-butyl)-6-chloro-1H-indazol-3-yl)amino)methyl)thiazole-4-carboxamide] | D (a binding rate of 20% or more and less than 40% is rated “D,”)
9 | C=CC(=O)N1CC(NC(=O)c2cnc(CNc3n[nH]c4cc(Cl)c(C(C)(C)C)cc34)s2)C1 [Example 8, N-(1-acryloylazetidin-3-yl)-2-(((5-(tert-butyl)-6-chloro-1H-indazol-3-yl)amino)methyl)thiazole-5-carboxamide] | B (a binding rate of 60% or more and less than 80% is rated “B,”)
10 | C=CC(=O)N1CC(NC(=O)c2cc(CNc3n[nH]c4cc(Cl)c(C(C)(C)C)cc34)nn2C)C1 [Example 9, N-(1-acryloylazetidin-3-yl)-3-(((5-(tert-butyl)-6-chloro-1H-indazol-3-yl)amino)methyl)-1-methyl-1H-pyrazole-5-carboxamide] | D (a binding rate of 20% or more and less than 40% is rated “D,”)
11 | C=CC(=O)N1CC(NC(=O)c2c(C)c(CNc3n[nH]c4cc(Cl)c(C(C)(C)C)cc34)nn2C)C1 [Example 10, N-(1-acryloylazetidin-3-yl)-3-(((5-(tert-butyl)-6-chloro-1H-indazol-3-yl)amino)methyl)-1,4-dimethyl-1H-pyrazole-5-carboxamide] | B (a binding rate of 60% or more and less than 80% is rated “B,”)
12 | C=CC(=O)N1CC(NC(=O)c2oc(CNc3n[nH]c4cc(Cl)c(C(C)(C)C)cc34)nc2C)C1 [Example 11, N-(1-acryloylazetidin-3-yl)-2-(((5-(tert-butyl)-6-chloro-1H-indazol-3-yl)amino)methyl)-4-methyloxazole-5-carboxamide] | B (a binding rate of 60% or more and less than 80% is rated “B,”)
13 | C=CC(=O)N1CC(NC(=O)c2c(C)nc(CNc3n[nH]c4cc(Cl)c(C(C)(C)C)cc34)n2CC)C1 [Example 12, N-(1-acryloylazetidin-3-yl)-2-(((5-(tert-butyl)-6-chloro-1H-indazol-3-yl)amino)methyl)-1-ethyl-4-methyl-1H-imidazole-5-carboxamide] | B (a binding rate of 60% or more and less than 80% is rated “B,”)
14 | C=CC(=O)N1CC(NC(=O)c2c(C)nc(CNc3n[nH]c4cc(Cl)c(C(C)(C)C)cc34)n2CCOC)C1 [Example 14, N-(1-acryloylazetidin-3-yl)-2-(((5-(tert-butyl)-6-chloro-1H-indazol-3-yl)amino)methyl)-1-(2-methoxyethyl)-4-methyl-1H-imidazole-5-carboxamide] | B (a binding rate of 60% or more and less than 80% is rated “B,”)
15 | C=CC(=O)N1CC(NC(=O)c2c(C)nc(CNc3n[nH]c4cc(Cl)c(C(C)(C)C)cc34)n2Cc2ccccc2)C1 [Example 15, N-(1-acryloylazetidin-3-yl)-1-benzyl-2-(((5-(tert-butyl)-6-chloro-1H-indazol-3-yl)amino)methyl)-4-methyl-1H-imidazole-5-carboxamide] | A (a binding rate of 80% or more is rated “A,”)
16 | C=CC(=O)N1CC(NC(=O)c2c(C)nc(CNc3n[nH]c4cc(Cl)c(C(C)(C)C)cc34)n2CCN(C)C)C1 [Example 16, N-(1-acryloylazetidin-3-yl)-2-(((5-(tert-butyl)-6-chloro-1H-indazol-3-yl)amino)methyl)-1-(2-(dimethylamino)ethyl)-4-methyl-1H-imidazole-5-carboxamide] | B (a binding rate of 60% or more and less than 80% is rated “B,”)
17 | C=CC(=O)N1CC(NC(=O)c2c(C)nc(CNc3n[nH]c4cc(Cl)c(C(C)(C)C)cc34)n2C2CCCC2)C1 [Example 17, N-(1-acryloylazetidin-3-yl)-2-(((5-(tert-butyl)-6-chloro-1H-indazol-3-yl)amino)methyl)-1-cyclopentyl-4-methyl-1H-imidazole-5-carboxamide] | B (a binding rate of 60% or more and less than 80% is rated “B,”)
18 | C=CC(=O)N1CC(NC(=O)c2c(C)nc(CNc3n[nH]c4cc(Cl)c(C(C)(C)C)cc34)n2CCCC)C1 [Example 18, N-(1-acryloylazetidin-3-yl)-1-butyl 2-(((5-(tert-butyl)-6-chloro-1H-indazol-3-yl)amino)methyl)-4-methyl-1H-imidazole-5-carboxamide] | B (a binding rate of 60% or more and less than 80% is rated “B,”)
19 | C=CC(=O)N1CC(NC(=O)c2c(C)nc(CNc3n[nH]c4cc(Cl)c(C(C)(C)C)cc34)n2CCC)C1 [Example 19, N-(1-acryloylazetidin-3-yl)-2-(((5-(tert-butyl)-6-chloro-1H-indazol-3-yl)amino)methyl)-4-methyl-1-propyl-1H-imidazole-5-carboxamide] | A (a binding rate of 80% or more is rated “A,”)
20 | C=CC(=O)N1CC(NC(=O)c2c(C)nc(CNc3n[nH]c4cc(Cl)c(C(C)(C)C)cc34)n2C(C)CC)C1 (centres unmarked) [Example 20, N-(1-acryloylazetidin-3-yl)-1-(sec-butyl)-2-(((5-(tert-butyl)-6-chloro-1H-indazol-3-yl)amino)methyl)-4-methyl-1H-imidazole-5-carboxamide] | A (a binding rate of 80% or more is rated “A,”)
